Tests used:
Format in all cases: cell-based
WT ErbB2 = target: T1, WT ErbB2 (Homo sapiens, UniProt P04626); assay: Western blot pY1248, WT ErbB2 in transfected HBMECs; conditions: 0, 5, 10 or 20 μM, 48 h
T1 construct: expressed in transfected cells; host or cells: HBMEC
Protocol: HBMECs cells were transfected with plasmids encoding WT, ΔEBM (a form of ErbB2 carrying mutations in the juxtamembrane domain and unable to bind to the Ezrin FERM domain), V659E or p95 ErbB2 and treated with 0, 5, 10 or 20 μM ZU for 24 h. ErbB2 activation was then analyzed by western blot analysis using a phospho-ErbB2-specific antibody (pY1248) and a tubulin antibody as a loading control. Histograms show optical density quantification.
(§1) HBMECs cells were transfected with plasmids encoding WT, V777L or V842I and treated with 0, 5, 10 or 20 μM ZU or EB1 for 48 h. ErbB2 activation was then analyzed by western blot analysis using a phospho-ErbB2-specific antibody (pY1248) and a total ErbB2 antibody. Histograms show optical density quantification.

V777L ErbB2 = target: T2, V777L ErbB2 (Homo sapiens, UniProt P04626, V777L); assay: Western blot pY1248, V777L ErbB2 in transfected HBMECs; conditions: 0, 5, 10 or 20 μM, 48 h
T2 construct: expressed in transfected cells; host or cells: HBMEC
Protocol: as §1

V842I ErbB2 = target: T3, V842I ErbB2 (Homo sapiens, UniProt P04626, V842I); assay: Western blot pY1248, V842I ErbB2 in transfected HBMECs; conditions: 0, 5, 10 or 20 μM, 48 h
T3 construct: expressed in transfected cells; host or cells: HBMEC
Protocol: as §1

[1] = tested on: V842I ErbB2-transfected cells; assay: MTT cell proliferation, V842I ErbB2-transfected HBMEC; conditions: day 3
Protocol: The WT, V777L or V842I ErbB2-transfected cells were treated with 5 or 10 μM of ZU and cell proliferation was determined each day during 3 days using an MTT assay. Non transfected cells were included as a negative control.
The WT, V777L or V842I ErbB2-transfected cells were treated with 5 or 10 μM of EB1 and cell proliferation was determined each day during 3 days using an MTT assay. Non transfected cells were included as a negative control.

O=C1c2ccccc2[Se](=O)N1c1ccccc1 (centres unmarked) [EB1, Ebselen oxide]
ErbB2 WT activation (in words) (WT ErbB2): potently decrease
ErbB2 V777L activation (in words) (V777L ErbB2): potently decrease
ErbB2 V842I activation (in words) (V842I ErbB2): potently decrease
decrease of the proliferation of V842I transfected HBMEC ([1]; 5 μM): 55%
decrease of the proliferation of V842I transfected HBMEC ([1]; 10 μM): 90%
